Source: patent publication US7179800B2 (priority 2002, dated 2007)
Where two headings read alike, the source gives them in different places.

Tests used:
[1] = biological target: T1, CB2 receptor (Homo sapiens, UniProt P34972); experiment: CB2 binding procedure: displacement of [3H]CP-55,940 from membranes of transfected CHO cells; settings: for CB1/CB2 (ratio of Ki): CB1 Ki divided by CB2 Ki; for Ki: means ± SEM, [3H]CP-55,940, transfected CHO cell membranes, read-out: Ki (nM) CB2; for fold decrease in CB2 affinity: relative to the comparator analog
T1 construct: expressed in transfected cells; host or cells: CHO cells, G418-selected transfected line
T1 sequence (P34972 whole entry): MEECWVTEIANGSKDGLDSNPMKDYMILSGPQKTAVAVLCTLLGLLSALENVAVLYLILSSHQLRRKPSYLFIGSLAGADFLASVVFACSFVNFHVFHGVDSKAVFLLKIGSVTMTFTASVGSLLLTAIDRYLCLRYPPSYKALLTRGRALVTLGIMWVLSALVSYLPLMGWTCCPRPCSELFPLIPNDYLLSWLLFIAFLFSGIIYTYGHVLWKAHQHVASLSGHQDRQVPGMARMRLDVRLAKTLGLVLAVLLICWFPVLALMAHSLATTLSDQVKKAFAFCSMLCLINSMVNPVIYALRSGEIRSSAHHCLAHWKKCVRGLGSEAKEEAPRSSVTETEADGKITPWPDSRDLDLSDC

[2] = system: Male ICR mice; experiment: Suppression of spontaneous activity (SA) in mice; format: in vivo, mouse; settings: Mus musculus, iv, mice, i.v.
[3] = 95% confidence limits in parentheses, read-out: ED50 SA (suppression of spontaneous activity)

CCCCCCC(C)(C)c1cc(O)c(C2CCCC(C)C2)c(O)c1 (mixture of isomers) [O-1657, 2-(3-Methylcyclohexyl)-5-(1′,1′-dimethylheptyl)-resorcinol]
CB1/CB2 (ratio of Ki) [1]: 17 | Ki [1]: 0.8 ± 0.04 nM | ED50 ([2]; Table 6, read-out: S.A ED50): 0.13 mg/kg | ED50 [2, 3]: 0.3 µmol/kg

CCCCCCC(C)(C)c1cc(O)c([C@H]2CCCC(C)C2)c(O)c1 (single isomer, unassigned) [O-1826]
CB1/CB2 (ratio of Ki) [1]: 50 | Ki [1]: 0.8 ± 0.05 nM | ED50 ([2]; Table 6, read-out: S.A ED50): 0.915 mg/kg | ED50 [2, 3]: 2.7 µmol/kg

CCCCCCC(C)(C)c1ccc(-c2cc(C)ccc2C(C)C)c(O)c1 [O-1376, 3-1′,1′-Dimethylheptyl-6-(2-isopropyl-5-methylphenyl)phenol]
CB1/CB2 (ratio of Ki) [1]: 11 | Ki [1]: 3 ± 0.4 nM | ED50 ([2]; Table 6, read-out: S.A ED50): 2.94 mg/kg | ED50 [2, 3]: 8.5 µmol/kg

CCCCCCC(C)(C)c1cc(O)c(C2CCCCC2)c(O)c1 [O-1422, Cyclohexyl-5-(1′,1′-dimethylheptyl)-resorcinol]
CB1/CB2 (ratio of Ki) [1]: 7 | Ki [1]: 1.5 ± 0.1 nM | ED50 ([2]; Table 6, read-out: S.A ED50): 0.379 mg/kg | ED50 [2, 3]: 0.1 µmol/kg

CCCCCCC(C)(C)c1cc(O)c(C2=CCCCC2)c(O)c1 [O-1423]
CB1/CB2 (ratio of Ki) [1]: 3 | Ki [1]: 28 ± 5 nM | ED50 ([2]; Table 6, read-out: S.A ED50): 3.92 mg/kg | ED50 [2, 3]: 12 µmol/kg

CCCCCCC(C)(C)c1cc(O)c(C2CCSCC2)c(O)c1 [O-1425]
CB1/CB2 (ratio of Ki) [1]: 13 | Ki [1]: 12 ± 2 nM | fold decrease in CB2 affinity [1]: 8 fold | ED50 ([2]; Table 6, read-out: S.A ED50): 5.82 mg/kg | ED50 [2, 3]: 17 µmol/kg

CCCCCCC(C)(C)c1cc(O)c(C2CCCCC2C)c(O)c1 (stereo not shown) [O-1658, 2-(2-Methylcyclohexyl)-5-(1′,1′-dimethylheptyl)-resorcinol]
CB1/CB2 (ratio of Ki) [1]: 16 | Ki [1]: 1 ± 0.3 nM | ED50 ([2]; Table 6, read-out: S.A ED50): 0.06 mg/kg | ED50 [2, 3]: 0.2 µmol/kg

CCCCCCC(C)(C)c1cc(O)c(C2CCC(C)CC2)c(O)c1 (stereo not shown) [O-1659, 2-(4-Methylcyclohexyl)-5-(1′,1′-dimethylheptyl)-resorcinol]
CB1/CB2 (ratio of Ki) [1]: 9 | Ki [1]: 5 ± 0.9 nM | fold decrease in CB2 affinity [1]: about 5 fold | ED50 ([2]; Table 6, read-out: S.A ED50): 1.65 mg/kg | ED50 [2, 3]: 4.8 µmol/kg

CCCCCCC(C)(C)c1cc(O)c(C2C3CC4CC(C3)CC2C4)c(O)c1 (stereo not shown) [O-1660, 2-(2-Adamantyl)-5-(1′,1′-di-methylheptyl)-resorcinol]
CB1/CB2 (ratio of Ki) [1]: 2 | Ki [1]: 3 ± 0.8 nM | ED50 ([2]; Table 6, read-out: S.A ED50): 1.27 mg/kg | ED50 [2, 3]: 3.5 µmol/kg

CCCCCCC(C)(C)c1cc(O)c(C2CCSC2)c(O)c1 (stereo not shown) [O-1661, 2-(Tetrahydrothiophen-3-yl)-5-(1′,1′-dimethylheptyl)-re-sorcinol]
CB1/CB2 (ratio of Ki) [1]: 5 | Ki [1]: 28 ± 12 nM | ED50 ([2]; Table 6, read-out: S.A ED50): 2.65 mg/kg | ED50 [2, 3]: 24 µmol/kg

CCCC(C)(C)c1cc(O)c(C2CCCC(C)C2)c(O)c1 (stereo not shown) [O-1890, 2-(3-Methylcyclohexyl)-5-(1′,1′-dimethylbutyl)-resorcinol]
CB1/CB2 (ratio of Ki) [1]: 7 | Ki [1]: 13 ± 1 nM | ED50 ([2]; Table 6, read-out: S.A ED50): 20 mg/kg | ED50 [2, 3]: 69 µmol/kg
